Experimental data as given in US9242009B2, “Compositions and methods to treat neurodegenerative diseases” (The General Hospital Corporation, priority 2012, dated 2016).

How the values were obtained:
[1] = system: murine primary cortical neurons; test: Amyloid beta-induced toxicity in murine primary cortical neurons (LDH release, MTT); assay type: cell-based, mice; settings: 24 hours incubation with Aβ1-42 at 20 μM
Method: FIG. 13A-B is a set of two bar graphs depicting cell viability of murine primary cortical neurons exposed to 20 μM amyloid beta (Aβ) and treated with memantine, ACS48, or S-memantine at 5, 10, or 30 μM. Cell viability was estimated by LDH release assay in the left graph and MTT assay in the right graph.

[2] = system: phosphorylated ERK1/2 at threonine 202 and tyrosine 204; test: Immunoblot of phosphorylated ERK1/2 in SH-SY5Y after OGD; assay type: cell-based, Human; settings: 50 μM added 8 hours after end of OGD
Method: (§1) OGD for SH-SY5Y was performed by placing cells in a hypoxia chamber ([…] Technologies Inc.) for 15 hours, followed by 24 hours of reoxygenation as previously reported (FIG. 3A) (Serra-Pérez et al. (2008) Journal of Neurochemistry 106, 1237-1247). Briefly, medium was replaced with glucose-free RPMI 1640 with L-glutamine (Cellgro by Mediatech, Inc), deoxygenated with anaerobic gas mixture (93% N2-5% CO2-2% H2) for 30 minutes before use. Cells were then placed in a hypoxia chamber, flushed with anaerobic gas mixture (93% N2-5% CO2-2% H2) and incubated at 37° C. […]
(§2) Protein levels in SH-SY5Y were determined by standard immunoblot techniques using primary antibodies (1:1,000, Cell Signaling Technology Inc., Danvers, Mass.) against cleaved caspase-3, caspase-3, phosphorylated Akt at threonine 308, Akt, phosphorylated ERK1/2 at threonine 202 and tyrosine 204, Erk1/2, β-tubulin and phosphorylated tau protein at serine 202 and threonine 205 (1:250; Thermo scientific, MN1020), tau protein (1:1000; Thermo scientific, MN1010). Bound antibody was detected with a horseradish peroxidase-linked antibody directed against rabbit IgG (1:10,000˜1:25,000; Cell Signaling Technology Inc.), or mouse IgG (1:2,000; GE healthcare, NA931V) and was visualized using chemiluminescence with ECL Advance kit (GE healthcare).

[3] = Plasma and cerebral sulfide levels of mice after intraperitoneal administration; assay type: in vivo; settings: 25 μmol/kg intraperitoneal, 90 minutes after administration
Source text: Blood was drawn from left ventricle and centrifuged to collect the plasma. After perfusion with Tris-HCl buffer via left ventricle, brain was harvested, homogenized in Tris-HCl, and centrifuged. Plasma and supernatant of brain homogenate were derivatized with MBB and analyzed by HPLC.

Aβ1-42 = settings: LPS challenge for 7 days
mice challenged with LPS = test: LPS-induced cognitive impairment, Morris water-maze
[4] = system: phosphorylated tau protein at serine 202 and threonine 205; test: LPS-induced tau phosphorylation in mice hippocampus (immunoblot); assay type: in vivo; settings: 90 μmol/kg pretreatment
SH-SY5Y [5] = test: Intracellular GSH levels in SH-SY5Y (HPLC); assay type: cell-based, Human; settings: 50 μM, 8 hours
Method: Intracellular GSH level of SH-SY5Y was measured using HPLC method as previously reported (Kimura et al. (2009) Antioxidants & Redox Signaling 12, 1-13). Briefly, cells were seeded into 6 cm dishes (5×10^5 cells per dish) and treated with 50 μM H2S donors or memantine with or without 2 mM glutamate for 8 hours, followed by washing with ice-cold PBS. Cells were scraped and transferred to a microfuge tube and sonicated. Some fraction of lysate was used for protein assay. After centrifugation, 75 μl of supernatant, 26 μl of 2-(cyclohexylamino) ethanesulfonic acid (CHES, 0.5 M, PH 8.4), and 4 μl of 50 μM MBB were mixed and incubated at room temperature in dark for 30 minutes. Acetic acid (100 μl, 30% v/v) was added, followed by centrifugation at 15,000×g for 10 min after 5 min incubation of the tube on ice. The supernatant was analyzed using HPLC at wavelength of λex=370 nm and λem=486 nm.

SH-SY5Y [6] = test: Amyloid beta-induced toxicity in SH-SY5Y (LDH release, MTT); assay type: cell-based, Human; settings: 24 hours incubation with Aβ1-42 at 20 μM
Method: FIG. 12A-B is a set of two bar graphs showing cell viability of SH-SY5Y cells exposed to 20 μM amyloid beta (Aβ) and treated with memantine, ACS48, or S-memantine at 20 or 50 μM. Cell viability was estimated by LDH release assay in the left graph and MTT assay in the right graph.

[7] = system: murine primary cortical neurons; test: Cytotoxicity of H2S donors to murine primary cortical neurons (LDH release); assay type: cell-based, mice; settings: 50 μM; 24 hours; without memantine
Method: A microtiter plate containing cells was centrifuged at 250×g for 10 minutes and the supernatant was used for LDH measurement with LDH Cytotoxicity Detection Kit (Roche). After aspirating the medium, remaining cells were washed with PBS, then, 100 μl of 1% Triton-X was added to each well, followed by incubation at 37° C. for 30 minutes. Medium and lysates were used for LDH measurement at wavelength 492 nm. Percentage of released LDH was calculated with following formula: {LDH (medium)/LDH (medium+cell)×100}. Average value of control (cells without OGD) was deducted as background.

cleaved caspase-3 = test: Immunoblot of cleaved caspase-3 in SH-SY5Y after OGD; assay type: cell-based, Human; settings: 50 μM added 8 hours after end of OGD; 15 hours OGD, 24 hours reoxygenation
Method: as §1, §2

[8] = system: phosphorylated Akt at threonine 308; test: Immunoblot of phosphorylated Akt in SH-SY5Y after OGD; assay type: cell-based, Human; settings: 50 μM added 8 hours after end of OGD

C[C@]12C[C@@H]3C[C@](C)(C1)C[C@@](NC(=O)c1ccc(-c4cssc4=S)cc1)(C3)C2 [S-memantine, N-((1r,3R,5S,7r)-3,5-dimethyladamantan-1-yl)-4-(3-thioxo-3H-1,2-dithiol-4-yl)-benzamide]
Cell viabilities after Aβ1-42 compared with memantine [1]: improved cell viabilities more markedly than did memantine | Cell viabilities after Aβ1-42 ([1]; compound 5, 10 or 30 μM): improved cell viabilities | Dephosphorylation of ERK after OGD [2]: attenuated dephosphorylation of ERK | Cerebral sulfide levels [3]: increased | Plasma sulfide levels [3]: increased plasma sulfide levels | Aβ1-42 accumulation in mice cortex, or hippocampus (Aβ1-42; 90 μmol/kg pretreatment): prevented Aβ1-42 accumulation | Prevention of Aβ1-42 accumulation compared with memantine (Aβ1-42): prevented Aβ1-42 accumulation more markedly than did memantine | Swimming speed in Morris water-maze test (mice challenged with LPS; 90 μmol/kg i.p.): did not change it | Latency until getting platform in Morris water-maze test (mice challenged with LPS; 90 μmol/kg i.p. 30 min before LPS, 4 hours after LPS-challenge): improved latency | LPS-induced tau phosphorylation at serine 202 and threonine 205 in mice hippocampus [4]: prevented LPS-induced tau phosphorylation | Magnitude of increase of GSH levels compared with Na2S or ACS48 (SH-SY5Y [5]): greater than with Na2S or ACS48 | Intracellular GSH levels (SH-SY5Y [5]; with 2 mM glutamate): restored intracellular GSH levels | Intracellular GSH levels (SH-SY5Y [5]; without glutamate): increased intracellular GSH levels | Cell viabilities after Aβ1-42 compared with memantine (SH-SY5Y [6]): improved cell viabilities more markedly than did memantine | Cell viabilities after Aβ1-42 (SH-SY5Y [6]; compound 20 or 50 μM): improved cell viabilities | LDH release (cytotoxicity) [7]: did not induce LDH release | Caspase-3 activation after OGD (cleaved caspase-3): prevented caspase-3 activation | Akt phosphorylation after OGD [8]: did not affect Akt phosphorylation
